Test: Stability of polymorphs: slurry of Form 1, Form 2 and Form 3 in ethanol, crystal form examined by powder X-ray diffraction
Type: physicochemical
Procedure: Powder X-ray diffraction analysis of solid material was carried out using the Briker D8 powder diffractometer. Samples were mounted in Perspex sample holders and the samples flattened. The sample holder was rotated and X-rays were collected from 4° to 34° 2-theta, with a scan time of 25 to 30 minutes depending on the pattern intensity. Approximately 0.1 g each of Form 1, Form 2 and Form 3 were added to 10 ml of ethanol at 50° C. and 60° C. until there were solids out of solution (a slurry). The temperature was maintained with stirring and the crystal form examined after 2 and 8 days.

[1] = about 0.1 g each of Form 1, Form 2 and Form 3 in 10 ml ethanol, stirred slurry at 50° C. and 60° C.

## CNC(=O)Nc1ccc(S(=O)(=O)NC(=O)c2ccccc2OC)cc1 [Form 1, N-(2-methoxybenzoyl)-4-[(methylaminocarbonyl)amino]benzenesulfonamide]
[1]
  crystal form present in slurry after 2 days: no evidence of Form 1

## CNC(=O)Nc1ccc(S(=O)(=O)NC(=O)c2ccccc2OC)cc1 [Form 2, N-(2-methoxybenzoyl)-4-[(methylaminocarbonyl)amino]benzenesulfonamide]
About 0.1 g each of Form 1, Form 2 and Form 3 in 10 ml ethanol, stirred slurry at 50° C. and 60° C., 8 days in total
  crystal form present in slurry after 8 days: complete conversion to Form 2
[1]
  crystal form present in slurry after 2 days: still present
General statement in the description, Form 2 compared with Form 1 and Form 3
  stability relative to the other polymorphs: stable polymorph

## CNC(=O)Nc1ccc(S(=O)(=O)NC(=O)c2ccccc2OC)cc1 [Form 3, N-(2-methoxybenzoyl)-4-[(methylaminocarbonyl)amino]benzenesulfonamide]
[1]
  crystal form present in slurry after 2 days: still present
